Experimental data published in patent publication US6204282A, “Benzimidazole compounds that are vitronectin receptor antagonists” (Schering Corporation, priority 1999, dated 2001).

Target: αllbβ3 receptor (Homo sapiens, UniProt P05106+P08514)
Assay: similar competitive assay with purified αllbβ3 receptor and 125I-echistatin (specificity index versus αvβ3)
Type: binding
Settings: IC50 αllbβ3 / IC50 αvβ3
Text: The specificity index, which is a measure of the relative binding affinity for αvβ3 versus αllbβ3, may be determined by dividing the IC50 value for αllbβ3by the IC50 value for αvβ3.

SPECIFICITY αIIb β3/αvβ3 (specificity index)	Compound
1183	CCCCOC(=O)N[C@@H](CNC(=O)c1ccc(CN(Cc2nc3ccccc3[nH]2)C(=O)Nc2ccc(C(=O)OCC)cc2)cc1)C(=O)O [Example 5-91]
1223	CCCCOC(=O)N[C@@H](CNC(=O)c1ccc(CN(Cc2nc3ccccc3[nH]2)C(=O)NC(C)(C)C)cc1)C(=O)O [Example 5-85]
46	COCC(=O)N(Cc1ccc(C(=O)NC[C@@H](NC(=O)OCc2ccccc2)C(=O)O)cc1)Cc1nc2ccccc2[nH]1 [Example 5-58]
91	CCOCC(=O)N(Cc1ccc(C(=O)NC[C@H](NC(=O)OCc2ccccc2)C(=O)O)cc1)Cc1nc2ccccc2[nH]1 [Example 5-26]
620	O=C(N[C@@H](CNC(=O)c1ccc(CN(Cc2nc3ccccc3[nH]2)C(=S)NC2CCCCC2)cc1)C(=O)O)OCc1ccccc1 [Example 5-55]
49	O=C(N[C@@H](CNC(=O)c1ccc(CN(Cc2nc3ccccc3[nH]2)C(=O)Nc2ccc(-c3ccccc3)cc2)cc1)C(=O)O)OCc1ccccc1 [Example 5-38]
1657	CCCCOC(=O)N[C@@H](CNC(=O)c1ccc(CN(Cc2nc3ccccc3[nH]2)C(=O)Nc2ccc(F)cc2)cc1)C(=O)O [Example 5-88]
70	CCCC(=O)N(Cc1ccc(C(=O)NC[C@H](NC(=O)OCc2ccccc2)C(=O)O)cc1)Cc1nc2ccccc2[nH]1 [Example 5-11]
19	CN(C)C(=O)N(Cc1ccc(C(=O)NC[C@H](NC(=O)OCc2ccccc2)C(=O)O)cc1)Cc1nc2ccccc2[nH]1 [Example 5-41]
0.4	O=C(O)CC(NC(=O)c1ccc(CNCc2nc3ccccc3[nH]2)cc1)c1ccccc1 (stereo not drawn) [Example 5-65]
223	CCCNC(=O)N(Cc1ccc(C(=O)NC[C@H](NC(=O)OCc2ccccc2)C(=O)O)cc1)Cc1nc2ccccc2[nH]1 [Example 5-39]
899	O=C(N[C@@H](CNC(=O)c1ccc(CN(Cc2nc3ccccc3[nH]2)C(=O)CCc2ccccc2)cc1)C(=O)O)OCc1ccccc1 [Example 5-16]
66.3	O=C(N[C@@H](CNC(=O)c1ccc(CN(Cc2nc3ccccc3[nH]2)C(=O)NS(=O)(=O)c2ccc(Cl)cc2)cc1)C(=O)O)OCc1ccccc1 [Example 5-44]
87	O=C(N[C@@H](CNC(=O)c1ccc(CN(Cc2nc3ccccc3[nH]2)C(=O)C(F)(F)F)cc1)C(=O)O)OCc1ccccc1 [Example 5-12]
34	O=C(N[C@@H](CNC(=O)c1ccc(CN(Cc2nc3ccccc3[nH]2)C(=O)COc2ccccc2)cc1)C(=O)O)OCc1ccccc1 [Example 5-19]
6.7	CC(=O)N(Cc1ccc(C(=O)NC[C@H](NC(=O)OCc2ccccc2)C(=O)O)cc1)C(C)c1nc2ccccc2[nH]1 (stereo partly drawn) [Example 5-76]

SPECIFICITY αIIb β3/αvβ3 (specificity index)	Compound
117	O=C(N[C@@H](CNC(=O)c1ccc(CN(Cc2nc3ccccc3[nH]2)C(=O)CCC2CCCC2)cc1)C(=O)O)OCc1ccccc1 [Example 5-14]
8.0	O=C(NC[C@H](NS(=O)(=O)c1ccccc1)C(=O)O)c1ccc(CN(Cc2nc3ccccc3[nH]2)C(=O)NC2CCCCC2)cc1 [Example 5-81]
26	O=C(N[C@@H](CNC(=O)c1ccc(CN(Cc2nc3ccccc3[nH]2)C(=O)C2CC2c2ccccc2)cc1)C(=O)O)OCc1ccccc1 (stereo partly drawn) [Example 5-22]
712	CCCCOC(=O)N[C@@H](CNC(=O)c1ccc(CN(Cc2nc3ccccc3[nH]2)C(=O)NC(C)C)cc1)C(=O)O [Example 5-84]
95	O=C(N[C@@H](CNC(=O)c1ccc(CN(Cc2nc3ccccc3[nH]2)C(=O)C2CCCCC2)cc1)C(=O)O)OCc1ccccc1 [Example 5-15]
1136	O=C(N[C@@H](CNC(=O)c1ccc(CN(Cc2nc3ccccc3[nH]2)C(=O)NC2CCCCC2)cc1)C(=O)O)OCc1ccccc1 [Example 5-28]
203	O=C(N[C@@H](CNC(=O)c1ccc(CN(Cc2nc3ccccc3[nH]2)C(=O)Nc2cccc3ccccc23)cc1)C(=O)O)OCc1ccccc1 [Example 5-37]
52	COCCC(=O)N(Cc1ccc(C(=O)NC[C@H](NC(=O)OCc2ccccc2)C(=O)O)cc1)Cc1nc2ccccc2[nH]1 [Example 5-25]
528	O=C(O)CNC(=O)N(Cc1ccc(C(=O)NC[C@H](NC(=O)OCc2ccccc2)C(=O)O)cc1)Cc1nc2ccccc2[nH]1 [Example 5-96, N^3-[4-[(Benzimidazol-2-yl)methyl][[(carboxymethyl)amino]carbonyl]aminomethylbenzoyl]-N^2 -Cbz-L-2,3-diaminopropionic acid]
129	CC(NC(=O)N(Cc1ccc(C(=O)NC[C@H](NC(=O)OCc2ccccc2)C(=O)O)cc1)Cc1nc2ccccc2[nH]1)c1cccc2ccccc12 (stereo partly drawn) [Example 5-36]
1697	CCCCOC(=O)N[C@@H](CNC(=O)c1ccc(CN(Cc2nc3ccccc3[nH]2)C(=O)N[C@H](C(=O)OCC)C(C)C)cc1)C(=O)O [Example 5-90]
1210	CCOC(=O)[C@@H](NC(=O)N(Cc1ccc(C(=O)NC[C@H](NC(=O)OCc2ccccc2)C(=O)O)cc1)Cc1nc2ccccc2[nH]1)C(C)C [Example 5-51]
0.4	O=C(O)CC(NC(=O)c1ccc(CN(Cc2nc3ccccc3[nH]2)C(=O)CCc2ccccc2)cc1)c1ccccc1 (stereo not drawn) [Example 5-68]
11	COCC(=O)N(Cc1ccc(C(=O)NC[C@H](NS(=O)(=O)c2ccccc2)C(=O)O)cc1)Cc1nc2ccccc2[nH]1 [Example 5-80]
421	CC(C)(C)NC(=O)N(Cc1ccc(C(=O)NC[C@H](NC(=O)OCc2ccccc2)C(=O)O)cc1)Cc1nc2ccccc2[nH]1 [Example 5-34]

Compound	SPECIFICITY αIIb β3/αvβ3 (specificity index)
CCCCOC(=O)N[C@@H](CNC(=O)c1ccc(CN(Cc2nc3ccccc3[nH]2)C(=O)NCC(=O)OCC)cc1)C(=O)O [Example 5-86, N^3-[4-[(benzimnidazol-2-yl)methyl][[(ethoxycarbonylmethyl)amino]-carbonyl]aminomethylbenzoyl]-N^2-(n-butoxycarbonyl)-L-2,3-diaminopropionic acid]	793
CC(C)NC(=O)N(Cc1ccc(C(=O)NC[C@H](NC(=O)OCc2ccccc2)C(=O)O)cc1)Cc1nc2ccccc2[nH]1 [Example 5-30]	296
CCCCOC(=O)N[C@@H](CNC(=O)c1ccc(CN(Cc2nc3ccccc3[nH]2)C(=O)NCC(=O)O)cc1)C(=O)O [Example 5-97, N^3-[4-[(Benzimidazol-2-yl)methyl][[(carboxymethyl)amino]carbonyl]aminomethylbenzoyl]-N^2-(n-butoxycarbonyl)-L-2,3-diaminopropionic acid]	2600

Target: T1, αvβ3 receptor (Homo sapiens, UniProt P05106+P06756)
T1 construct: αvβ3 receptor (purified from human placenta); from tissue; host or cells: human placenta
Assay: competition radioligand binding assay, 125I-echistatin to purified αvβ3 receptor
Settings: inhibition of specific binding of 125I-echistatin (0.05 nM), 3 hour incubation at room temperature

IC50	Compound
6.5 nM	O=C(N[C@@H](CNC(=O)c1ccc(CN(Cc2nc3ccccc3[nH]2)C(=O)c2ccc(Cl)cc2)cc1)C(=O)O)OCc1ccccc1 [Example 5-2]
~500 nM	O=C(N[C@@H](CNC(=O)c1cccc(CN(Cc2nc3ccccc3[nH]2)C(=O)c2ccc3c(c2)OCO3)c1)C(=O)O)OCc1ccccc1 [Example 5-9]
0.42 nM	COCC(=O)N(Cc1ccc(C(=O)NC[C@H](NC(=O)OCc2ccccc2)C(=O)O)cc1)Cc1nc2ccccc2[nH]1 [Example 5-5]
~500 nM	O=C(N[C@@H](CNC(=O)c1cccc(CNCc2nc3ccccc3[nH]2)c1)C(=O)O)OCc1ccccc1 [Example 5-6]
1.9 nM	CC(=O)N(Cc1ccc(C(=O)NC[C@H](NC(=O)OCc2ccccc2)C(=O)O)cc1)Cc1nc2ccccc2[nH]1 [Example 5-3]
~500 nM	O=C(N[C@@H](CNC(=O)c1cccc(CN(Cc2nc3ccccc3[nH]2)C(=O)c2ccc(Cl)cc2)c1)C(=O)O)OCc1ccccc1 [Example 5-7]
3.4 nM	CCCC(=O)N(Cc1ccc(C(=O)NC[C@H](NC(=O)OCc2ccccc2)C(=O)O)cc1)Cc1nc2ccccc2[nH]1 [Example 5-11]
2.8 nM	CN(C)C(=O)N(Cc1ccc(C(=O)NC[C@H](NC(=O)OCc2ccccc2)C(=O)O)cc1)Cc1nc2ccccc2[nH]1 [Example 5-41]
~500 nM	CC(=O)N(Cc1cccc(C(=O)NC[C@H](NC(=O)OCc2ccccc2)C(=O)O)c1)Cc1nc2ccccc2[nH]1 [Example 5-8]
5.6 nM	O=C(N[C@@H](CNC(=O)c1ccc(CN(Cc2nc3ccccc3[nH]2)C(=O)C(F)(F)F)cc1)C(=O)O)OCc1ccccc1 [Example 5-12]
5.4 nM	O=C(N[C@@H](CNC(=O)c1ccc(CNCc2nc3ccccc3[nH]2)cc1)C(=O)O)OCc1ccccc1 [Example 5-1]
~500 nM	COCC(=O)N(Cc1cccc(C(=O)NC[C@H](NC(=O)OCc2ccccc2)C(=O)O)c1)Cc1nc2ccccc2[nH]1 [Example 5-10]
2.9 nM	O=C(N[C@@H](CNC(=O)c1ccc(CN(Cc2nc3ccccc3[nH]2)C(=O)c2ccc3c(c2)OCO3)cc1)C(=O)O)OCc1ccccc1 [Example 5-4]

Compound	IC50
CC(C)NC(=O)N(Cc1ccc(C(=O)NC[C@H](NC(=O)OCc2ccccc2)C(=O)O)cc1)Cc1nc2ccccc2[nH]1 [Example 5-30]	2.3 nM
